Patent publication US20100173885A1, “ORGANOMETEALLIC COMPOUNDS” (priority 2007, published 2010)

How the values were obtained:
[1] = Fluorescence quantum yield of photosensitizers; format: physicochemical; conditions: in MeOH at 648 nm after 410 nm excitation
Procedure: The UV-visible absorption spectra were recorded on an Uvikon 930 spectrophotometer and fluorescence spectra on a Perkin-Elmer LS50 spectrofluorometer.

RAW macrophages = assay: Phototoxicity in RAW macrophages, irradiation at 652 nm, MTT test; format: cell-based; conditions: RAW cells, 10 μM, 20 mW/cm^2, MTT 24 h after irradiation
Procedure: RAW cells were grown in 96-well cell culture plates (Corning, N.Y.) until 75% confluent in DMEM medium containing 10% FCS. The culture media were replaced with fresh medium containing the Ru, Os or Rh-porphyrin analogs at 10 μM (minimal dark cytotoxicity) and the cells were exposed overnight to the compounds. Then, the media were replaced with DMEM without phenol red containing 10% FCS and cells were irradiated at 652 nm using a diode laser (Applied Optronics, South Plainfield, N.J.) coupled to a frontal diffuser (Medlight SA, Ecublens, Switzerland), at an irradiance of 20 mW/cm^2. Experiments were performed in triplicate wells. Cell viability was evaluated 24 h later using the MTT test. Briefly, 3-(4,5-dimethyl-2-thiazoyl)-2,5-diphenyltetrazolium bromide (MTT, Merck) was added at 250 μg/mL and incubation was continued for 2 h, then the cell culture supernatants were removed. The cell layers were dissolved in iPrOH/0.04N HCl and the absorbance measured at 540 nm in a multiwell-plate reader (iEMS Reader MF, Labsystems, Bioconcept, Switzerland) and compared to the values of control cells incubated with the nanoparticles but without laser irradiation.

| Compound | fluorescence quantum yield φf [1] | photosensitivity (photosensitizer ranking) (RAW macrophages) |
| --- | --- | --- |
| C1=Cc2nc1c(-c1ccncc1)c1ccc([nH]1)c(-c1ccncc1)c1nc(c(-c3ccncc3)c3ccc([nH]3)c2-c2ccncc2)C=C1 [TPP, 5,10,15,20-tetra(4-pyridyl)porphyrin, reference compound] | 10.4% | – |
| [OS4(η^6-p-Pr^iC6H4Me)4(TPP)Cl8] [Compound 6] | 7.0% | – |
| [Rh4(η^5-Cp*)4(TPP)Cl8] [Compound 7] | 7.9% | – |
| [Ru4(η^6-C6H6)4(TPP)Cl8] [Compound 1] | 6.1% | best photosensitizers amongst the Ru-porphyrin compounds |
| [Ir4(η^5-Cp*)4(TPP)Cl8] [Compound 8] | 4.5% | – |
| [Ru4(η^6-p-Pr^iC6H4Me)4(TPP)Cl8] [Compound 3] | 7.9% | – |
| [Ru4(η^6-C6H5CH3)4(TPP)Cl8] [Compound 2] | 7.4% | best photosensitizers amongst the Ru-porphyrin compounds |
| [Ru4(η^6-1,4-C6H4(COOEt)2)4(TPP)Cl8] [Compound 5] | 7.2% | – |
| [Ru4(η^6-C6Me6)4(TPP)Cl8] [Compound 4] | 7.3% | – |
